Test results reported in patent publication US8569292B2, “Cyclic inhibitors of 11β-hydroxysteroid dehydrogenase 1” (Vitae Pharmaceuticals, Inc., priority 2008, dated 2013).

How the values were obtained:
11β-HSD1 [1] = target: T1, 11β-HSD1 (Homo sapiens, UniProt P28845); experiment: biochemical; settings: for inhibition at 0.1 µM: read-out: Average % inhibition at 100 nM
11β-HSD1 [2] = target: T1, 11β-HSD1; experiment: Biological Test Example 4: microsomal 11β-HSD1 in the presence of 50% human plasma; settings: for Shift: IC50 in Test Example 4 divided by IC50 in Test Example 1
CYP3A4 = CYP3A4 (Homo sapiens, UniProt P08684); experiment: Biological Test Example 6: CYP3A4 inhibition (erythromycin N-demethylation); format: in vitro ADME
Chain of CYP3A4 (P08684 whole entry): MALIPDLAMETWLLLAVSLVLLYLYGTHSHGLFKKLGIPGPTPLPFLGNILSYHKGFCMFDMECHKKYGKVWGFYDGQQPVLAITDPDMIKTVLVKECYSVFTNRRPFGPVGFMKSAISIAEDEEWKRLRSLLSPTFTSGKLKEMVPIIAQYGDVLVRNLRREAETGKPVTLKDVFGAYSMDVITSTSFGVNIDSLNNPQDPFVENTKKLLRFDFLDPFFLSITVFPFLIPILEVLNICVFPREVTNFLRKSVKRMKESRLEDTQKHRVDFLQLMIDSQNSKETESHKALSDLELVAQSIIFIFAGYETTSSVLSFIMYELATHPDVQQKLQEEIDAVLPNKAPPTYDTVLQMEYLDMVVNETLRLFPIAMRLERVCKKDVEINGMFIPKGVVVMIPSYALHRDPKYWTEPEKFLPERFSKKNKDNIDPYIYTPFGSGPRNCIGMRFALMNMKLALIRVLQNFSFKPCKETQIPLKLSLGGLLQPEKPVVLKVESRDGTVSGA

CYP2C9 [3] = target: T2, CYP2C9 (Homo sapiens, UniProt P11712); experiment: Biological Test Example 9: CYP2C9 inhibition (Invitrogen kit, fluorogenic OOMR); format: in vitro ADME
T2 construct: purchased Invitrogen 2859; host or cells: insect cells infected with baculovirus (microsomes)
T2 sequence (P11712 whole entry): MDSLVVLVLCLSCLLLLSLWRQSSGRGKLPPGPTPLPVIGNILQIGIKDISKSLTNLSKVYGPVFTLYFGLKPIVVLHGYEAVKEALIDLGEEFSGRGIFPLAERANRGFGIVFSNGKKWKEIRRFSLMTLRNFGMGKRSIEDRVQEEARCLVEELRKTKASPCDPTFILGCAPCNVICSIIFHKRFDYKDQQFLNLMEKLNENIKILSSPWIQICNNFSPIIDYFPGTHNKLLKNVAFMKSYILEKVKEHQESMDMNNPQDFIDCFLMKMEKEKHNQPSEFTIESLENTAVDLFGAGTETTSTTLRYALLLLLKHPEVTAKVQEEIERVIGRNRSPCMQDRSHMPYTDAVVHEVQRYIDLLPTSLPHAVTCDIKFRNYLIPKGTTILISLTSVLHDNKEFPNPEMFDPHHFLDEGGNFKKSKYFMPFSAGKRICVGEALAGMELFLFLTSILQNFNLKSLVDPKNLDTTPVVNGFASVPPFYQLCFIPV

CYP2C9 [4] = target: T2, CYP2C9; experiment: Biological Test Example 7: CYP2C9 inhibition (naproxen O-demethylation); format: in vitro ADME
CYP2C19 = CYP2C19 (Homo sapiens, UniProt P33261); experiment: Biological Test Example 8: CYP2C19 inhibition (diazepam N-demethylation); format: in vitro ADME
Chain of CYP2C19 (P33261 whole entry): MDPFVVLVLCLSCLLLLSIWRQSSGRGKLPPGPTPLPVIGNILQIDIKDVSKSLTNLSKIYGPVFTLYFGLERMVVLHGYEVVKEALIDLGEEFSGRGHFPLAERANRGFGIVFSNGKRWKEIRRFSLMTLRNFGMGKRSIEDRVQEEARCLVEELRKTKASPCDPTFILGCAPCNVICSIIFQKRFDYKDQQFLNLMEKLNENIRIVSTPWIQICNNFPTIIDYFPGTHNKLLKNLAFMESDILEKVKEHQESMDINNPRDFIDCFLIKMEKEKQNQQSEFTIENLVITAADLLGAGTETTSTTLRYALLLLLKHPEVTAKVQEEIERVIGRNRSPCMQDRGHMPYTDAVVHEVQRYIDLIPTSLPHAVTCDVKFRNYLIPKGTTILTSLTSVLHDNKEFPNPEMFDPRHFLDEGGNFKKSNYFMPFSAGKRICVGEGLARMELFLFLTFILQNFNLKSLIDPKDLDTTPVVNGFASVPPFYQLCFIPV

[5] = Biological Test Example 1 IC50 (nM)
[6] = IC50 Range, Biological Test Example 1

T1 sequence (P28845 whole entry): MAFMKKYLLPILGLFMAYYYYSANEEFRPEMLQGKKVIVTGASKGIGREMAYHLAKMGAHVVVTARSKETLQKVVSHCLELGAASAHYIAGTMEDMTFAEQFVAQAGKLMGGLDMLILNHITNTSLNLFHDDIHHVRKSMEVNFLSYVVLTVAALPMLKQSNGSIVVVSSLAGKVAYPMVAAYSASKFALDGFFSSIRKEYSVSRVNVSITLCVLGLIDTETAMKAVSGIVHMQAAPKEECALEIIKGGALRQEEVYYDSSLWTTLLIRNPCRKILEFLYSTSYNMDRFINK

Row | IC50 (11β-HSD1 [1]; [5]) [nM] | IC50 (11β-HSD1 [1]; [6]) [nM] | inhibition at 0.1 µM (11β-HSD1 [1]) [%] | IC50 (11β-HSD1 [2]) [µM] | IC50 (CYP3A4) [µM] | IC50 (CYP2C9 [3]) [µM] | IC50 (CYP2C9 [4]) [µM] | IC50 (CYP2C19) [µM] | Shift (11β-HSD1 [2]) | Structure (SMILES)
1 | 2.2 | < 100 | 98.5 | 0.0051 | 5.6 | 11.2 | 14 | 2.6 | – | C[C@@H](c1ccc(-c2ccncn2)cc1)N1CC[C@](CC(C)(C)O)(c2ccccc2)OC1=O [EXAMPLE 131, (S)-6-(2-hydroxy-2-methylpropyl)-6-phenyl-3-((S)-1-(4-(pyrimidin-4-yl)phenyl)ethyl)-1,3-oxazinan-2-one]
2 | 1 | < 100 | 96 | 0.0055 | 13 | 8.9 | 11.2 | 13.2 | 5.4 | Cc1cc(-c2ccc([C@H](C)N3CC[C@](CCCNS(C)(=O)=O)(c4ccc(F)cc4)OC3=O)cc2)ccn1 [EXAMPLE 80, N-(3-((R)-6-(4-fluorophenyl)-3-((S)-1-(4-(2-methylpyridin-4-yl)phenyl)ethyl)-2-oxo-1,3-oxazinan-6-yl)propyl)methanesulfonamide]
3 | 0.7 | < 100 | 96.2 | 0.0136 | 29.2 | 9.9 | 23 | 40 | 18.2 | C[C@@H](c1ccc(-c2ccccn2)cc1)N1CC[C@](CCCNS(C)(=O)=O)(c2ccc(F)cc2)OC1=O [EXAMPLE 61, N-(3-((R)-6-(4-fluorophenyl)-2-oxo-3-((S)-1-(4-(pyridin-2-yl)phenyl)ethyl)-1,3-oxazinan-6-yl)propyl)methanesulfonamide]
4 | 1 | < 100 | 96.8 | 0.0079 | 2.1 | – | 2.5 | 3 | 8.0 | C[C@@H](c1ccc(-c2ccc(C(=O)NC(C)(C)C)cn2)cc1)N1CC[C@](CC(C)(C)C#N)(c2ccccc2)OC1=O [EXAMPLE 3, N-tert-butyl-6-(4-((S)-1-((R)-6-(2-cyano-2-methylpropyl)-2-oxo-6-phenyl-1,3-oxazinan-3-yl)ethyl)phenyl)nicotinamide]
5 | 1 | < 100 | 98.8 | 0.0108 | 8.9 | 9.7 | 11.2 | 19.5 | 11.1 | Cc1cc(-c2ccc([C@H](C)N3CC[C@](CC(C)(C)O)(c4ccccc4)OC3=O)cc2)ccn1 [EXAMPLE 97, (S)-6-(2-hydroxy-2-methylpropyl)-3-((S)-1-(4-(2-methylpyridin-4-yl)phenyl)ethyl)-6-phenyl-1,3-oxazinan-2-one]
6 | 3.3 | < 100 | 97.9 | 0.0106 | > 50 | – | 38.1 | 44.4 | – | Cc1nnc(-c2ccc([C@H](C)N3CC[C@](CC(C)(C)O)(c4ccccc4)OC3=O)cc2)s1 [EXAMPLE 172, (S)-6-(2-Hydroxy-2-methyl-propyl)-3-{(S)-1-[4-(5-methyl-[1,3,4]thiadiazol-2-yl)-phenyl]-ethyl}-6-phenyl-[1,3]oxazinan-2-one]
7 | 1.9 | < 100 | 94.6 | 0.0198 | 27.1 | – | 31.7 | 10.3 | 10.4 | C[C@@H](c1ccc(-c2nc(C(=O)NC3CC3)cs2)cc1)N1CC[C@](CC(C)(C)O)(c2ccccc2)OC1=O [EXAMPLE 19, N-cyclopropyl-2-(4-((S)-1-((S)-6-(2-hydroxy-2-methylpropyl)-2-oxo-6-phenyl-1,3-oxazinan-3-yl)ethyl)phenyl)thiazole-4-carboxamide]
8 | – | – | – | – | 11.6 | 8 | 8 | 11.4 | – | COc1ccc(-c2ccc([C@H](C)N3CC[C@](CC(C)(C)O)(c4ccccc4)OC3=O)cc2)cn1 [EXAMPLE 93, (S)-6-(2-hydroxy-2-methylpropyl)-3-((S)-1-(4-(6-methoxypyridin-3-yl)phenyl)ethyl)-6-phenyl-1,3-oxazinan-2-one]
9 | 2.1 | < 100 | 95.7 | 0.0129 | > 50 | – | > 50 | > 50 | – | C[C@@H](c1ccc(-c2ncc(C(=O)N(C)C)s2)cc1)N1CC[C@](CC(C)(C)O)(c2ccccc2)OC1=O [EXAMPLE 158, 2-(4-((S)-1-((S)-6-(2-hydroxy-2-methylpropyl)-2-oxo-6-phenyl-1,3-oxazinan-3-yl)ethyl)phenyl)-N,N-dimethylthiazole-5-carboxamide]
10 | 1.8 | < 100 | 97.3 | 0.0054 | 22.8 | – | 44.4 | 35.8 | 3.1 | Cc1nccc(-c2ccc([C@H](C)N3CC[C@](CC(C)(C)O)(c4ccccc4)OC3=O)cc2)n1 [EXAMPLE 135, (S)-6-(2-hydroxy-2-methylpropyl)-3-((S)-1-(4-(2-methylpyrimidin-4-yl)phenyl)ethyl)-6-phenyl-1,3-oxazinan-2-one]
11 | 1.2 | < 100 | 98.6 | 0.012 | 11.9 | – | 10.2 | 9.6 | 9.8 | Cc1cc(-c2ccc([C@H](C)N3CC[C@](CC(C)(C)O)(c4ccc(F)cc4)OC3=O)cc2)cc(C)n1 [EXAMPLE 144, (S)-3-((S)-1-(4-(2,6-dimethylpyridin-4-yl)phenyl)ethyl)-6-(4-fluorophenyl)-6-(2-hydroxy-2-methylpropyl)-1,3-oxazinan-2-one]
12 | 0.7 | < 100 | 96.3 | 0.004 | 19.6 | – | 19.8 | 24.2 | 5.8 | C[C@@H](c1ccc(-c2ccc(C3CC3)nn2)cc1)N1CC[C@](CC(C)(C)O)(c2ccccc2)OC1=O [EXAMPLE 4, (S)-3-((S)-1-(4-(6-cyclopropylpyridazin-3-yl)phenyl)ethyl)-6-(2-hydroxy-2-methylpropyl)-6-phenyl-1,3-oxazinan-2-one]
13 | 1.2 | < 100 | 100 | 0.0075 | > 50 | – | 9.9 | > 50 | 6.0 | C[C@@H](c1ccc(-c2ccc(C#N)cn2)cc1)N1CC[C@](CCCO)(c2ccc(F)cc2)OC1=O [EXAMPLE 101, 6-(4-((S)-1-((R)-6-(4-fluorophenyl)-6-(3-hydroxypropyl)-2-oxo-1,3-oxazinan-3-yl)ethyl)phenyl)nicotinonitrile]
14 | 0.8 | < 100 | 98.7 | 0.0069 | 5 | 7.9 | 2.9 | 8.5 | 8.8 | Cc1cc(-c2ccc([C@H](C)N3CC[C@](CC(C)(C)O)(c4ccc(F)cc4)OC3=O)cc2)ccn1 [EXAMPLE 76, (S)-6-(4-fluorophenyl)-6-(2-hydroxy-2-methylpropyl)-3-((S)-1-(4-(2-methylpyridin-4-yl)phenyl)ethyl)-1,3-oxazinan-2-one]
15 | 1.3 | < 100 | 92.4 | 0.0051 | 48.9 | – | > 50 | 0.8 | 3.9 | C[C@@H](c1ccc(-c2ccc(C(=O)NC(C)(C)C)nn2)cc1)N1CC[C@](CC(C)(C)C#N)(c2ccccc2)OC1=O [EXAMPLE 9, N-tert-butyl-6-(4-((S)-1-((R)-6-(2-cyano-2-methylpropyl)-2-oxo-6-phenyl-1,3-oxazinan-3-yl)ethyl)phenyl)pyridazine-3-carboxamide]
16 | – | – | – | – | > 50 | 9.9 | 21.4 | 18.2 | – | Cc1cc(-c2ccc([C@H](C)N3CC[C@](CC(C)(C)O)(c4ccccc4)OC3=O)cc2)cc(C)n1 [EXAMPLE 139, (S)-3-((S)-1-(4-(2,6-dimethylpyridin-4-yl)phenyl)ethyl)-6-(2-hydroxy-2-methylpropyl)-6-phenyl-1,3-oxazinan-2-one]
17 | 1 | < 100 | 96.5 | 0.0023 | 20.7 | – | 9 | 39.5 | 2.3 | Cc1ccc(-c2ccc([C@H](C)N3CC[C@](CC(C)(C)C#N)(c4ccccc4)OC3=O)cc2)nn1 [EXAMPLE 166, 2,2-dimethyl-3-((R)-3-((S)-1-(4-(6-methylpyridazin-3-yl)phenyl)ethyl)-2-oxo-6-phenyl-1,3-oxazinan-6-yl)propanenitrile]
18 | 1.1 | < 100 | 96.4 | 0.0101 | > 50 | – | > 50 | 47.6 | – | C[C@@H](c1ccc(-c2ccc(C(=O)N(C)C)cn2)cc1)N1CC[C@](CC(C)(C)O)(c2ccccc2)OC1=O [EXAMPLE 156, 6-(4-((S)-1-((S)-6-(2-hydroxy-2-methylpropyl)-2-oxo-6-phenyl-1,3-oxazinan-3-yl)ethyl)phenyl)-N,N-dimethylnicotinamide]
19 | 1.6 | < 100 | 90.3 | 0.0059 | 15.9 | – | 6.9 | 10.9 | – | C[C@@H](c1ccc(-c2ccc(C(=O)NC(C)(C)C)cn2)cc1)N1CC[C@](CC(C)(C)O)(c2ccccc2)OC1=O [EXAMPLE 163, N-tert-butyl-6-(4-((S)-1-((S)-6-(2-hydroxy-2-methylpropyl)-2-oxo-6-phenyl-1,3-oxazinan-3-yl)ethyl)phenyl)nicotinamide]
